One assay deals with T1, PI3Kδ (Homo sapiens, UniProt O00329).
T1 construct: The protein is full length and co-expressed with untagged PIK3R1; GST; purchased Invitrogen PV5274
T1 sequence (O00329 whole entry): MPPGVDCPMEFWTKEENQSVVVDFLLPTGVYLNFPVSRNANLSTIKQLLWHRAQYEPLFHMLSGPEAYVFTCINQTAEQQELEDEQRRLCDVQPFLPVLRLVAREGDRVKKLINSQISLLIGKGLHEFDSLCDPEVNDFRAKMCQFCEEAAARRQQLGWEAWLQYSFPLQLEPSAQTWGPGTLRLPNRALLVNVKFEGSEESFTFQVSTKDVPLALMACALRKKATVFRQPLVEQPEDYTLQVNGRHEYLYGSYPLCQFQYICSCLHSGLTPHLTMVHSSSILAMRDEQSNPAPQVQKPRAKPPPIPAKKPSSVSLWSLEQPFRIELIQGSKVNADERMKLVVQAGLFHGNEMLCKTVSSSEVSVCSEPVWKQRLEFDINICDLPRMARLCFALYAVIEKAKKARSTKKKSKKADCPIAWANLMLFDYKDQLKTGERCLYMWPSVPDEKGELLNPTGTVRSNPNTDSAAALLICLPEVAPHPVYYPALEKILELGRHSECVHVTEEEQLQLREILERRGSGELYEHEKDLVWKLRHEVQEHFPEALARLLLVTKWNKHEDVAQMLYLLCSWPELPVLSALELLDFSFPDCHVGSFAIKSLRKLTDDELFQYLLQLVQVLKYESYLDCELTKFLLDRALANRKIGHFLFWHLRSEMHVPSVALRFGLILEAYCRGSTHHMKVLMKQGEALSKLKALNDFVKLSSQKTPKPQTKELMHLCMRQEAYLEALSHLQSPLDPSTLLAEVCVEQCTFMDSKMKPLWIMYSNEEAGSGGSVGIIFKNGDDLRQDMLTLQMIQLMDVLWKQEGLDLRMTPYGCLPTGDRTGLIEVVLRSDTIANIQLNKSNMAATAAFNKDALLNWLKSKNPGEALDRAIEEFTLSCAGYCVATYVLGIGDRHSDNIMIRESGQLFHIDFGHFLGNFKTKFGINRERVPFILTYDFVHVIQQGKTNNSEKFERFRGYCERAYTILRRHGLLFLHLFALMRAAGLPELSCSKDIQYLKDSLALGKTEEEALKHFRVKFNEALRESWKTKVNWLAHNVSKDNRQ
T1 sequence (P27986 whole entry partner): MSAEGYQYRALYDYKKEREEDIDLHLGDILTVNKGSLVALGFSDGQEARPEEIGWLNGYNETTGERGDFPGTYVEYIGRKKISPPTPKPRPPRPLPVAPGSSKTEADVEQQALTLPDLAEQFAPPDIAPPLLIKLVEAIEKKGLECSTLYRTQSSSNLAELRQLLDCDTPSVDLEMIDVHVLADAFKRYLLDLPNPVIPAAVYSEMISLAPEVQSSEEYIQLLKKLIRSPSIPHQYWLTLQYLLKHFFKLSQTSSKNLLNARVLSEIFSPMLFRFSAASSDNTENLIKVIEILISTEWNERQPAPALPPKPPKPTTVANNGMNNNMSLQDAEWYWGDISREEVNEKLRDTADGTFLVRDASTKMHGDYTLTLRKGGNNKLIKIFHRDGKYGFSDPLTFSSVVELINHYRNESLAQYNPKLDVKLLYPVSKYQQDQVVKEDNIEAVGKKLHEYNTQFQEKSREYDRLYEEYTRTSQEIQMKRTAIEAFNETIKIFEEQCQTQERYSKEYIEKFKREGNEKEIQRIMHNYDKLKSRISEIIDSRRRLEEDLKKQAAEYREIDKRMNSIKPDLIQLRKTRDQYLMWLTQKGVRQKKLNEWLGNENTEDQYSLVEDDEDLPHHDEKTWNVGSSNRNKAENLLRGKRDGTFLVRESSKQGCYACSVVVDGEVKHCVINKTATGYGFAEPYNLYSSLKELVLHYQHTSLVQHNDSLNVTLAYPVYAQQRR
In words: PI3Kδ inhibition, modified PIK3CD Adapta TR-FRET assay. The assay is classed as biochemical. Particulars: recombinant GST-tagged full length PIK3CD co-expressed with PIK3R1 (p85α); 2 μM ATP, 50 μM PIP2. In a few lines: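 Full-length GST-PIK3CD co-expressed with p85α was run in 50 mM HEPES pH 7.5, 3 mM MgCl2, 1 mM EGTA, 100 mM NaCl, 0.03% CHAPS, 2 mM DTT, 1% DMSO, with 12-point compound titrations. Reactions at room temperature were started with solution containing 2 μM ATP and 50 μM PIP2. ADP was detected by Adapta TR-FRET (620 nm-ratioed).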
In general terms: In TR-FRET formats the signal depends on donor and acceptor labels being close together.
With `Cc1ccc([C@H](C)N2C(=O)[C@H]3COCCN3c3nc(-c4cccc5[nH]ccc45)ncc32)cc1` [Example 154, (R)-2-(1H-indol-4-yl)-5-((5)-1-p-tolylethyl)-6a,7,9,10-tetrahydro-[1,4]oxazino[3,4-h]pteridin-6(5H)-one], the “PI3Kδ Inhibition (pIC50)” value was 6.9.

The same assay, now with this note: recombinant GST-tagged full length PIK3CD co-expressed with PIK3R1 (p85α); 2 μM ATP, 50 μM PIP2; read-out: PI3Kδ Inhibition (pIC50) (converted).
On to `CS(=O)(=O)Nc1cccc(-c2ncc3c(n2)N2CCOCC2C(=O)N3Cc2ccc(S(C)(=O)=O)cc2)c1` (stereo not drawn) [Example 117, N-(3-(5-(4-(methylsulfonyl)benzyl)-6-oxo-5,6,6a,7,9,10-hexahydro-[1,4]oxazino[3,4-h]pteridin-2-yl)phenyl)methanesulfonamide], for which the IC50 is 794 nM.
On to `CS(=O)(=O)c1ccc(CN2C(=O)C3COCCN3c3nc(-c4ccc5[nH]c(=O)[nH]c5c4)ncc32)cc1` (stereo not drawn) [Example 119, 5-(4-(methylsulfonyl)benzyl)-2-(2-oxo-2,3-dihydro-1H-benzo[d]imidazol-5-yl)-6a,7,9,10-tetrahydro-[1,4]oxazino[3,4-h]pteridin-6(5H)-one], for which the IC50 is 2510 nM.
`CS(=O)(=O)c1ccc(CN2C(=O)C3COCCN3c3nc(-c4cccc(NS(=O)(=O)C5CC5)c4)ncc32)cc1` (stereo not drawn) [Example 120, N-(3-(5-(4-(methylsulfonyl)benzyl)-6-oxo-5,6,6a,7,9,10-hexahydro-[1,4]oxazino[3,4-h]pteridin-2-yl)phenyl)cyclopropanesulfonamide]: the IC50 was 7940 nM.
Same read-out and setting: the figure for `CS(=O)(=O)c1ccc(CN2C(=O)C3COCCN3c3nc(-c4cnc5cc[nH]c5c4)ncc32)cc1` (stereo not drawn) [Example 121, 5-(4-(methylsulfonyl)benzyl)-2-(1H-pyrrolo[3,2-b]pyridin-6-yl)-6a,7,9,10-tetrahydro-[1,4]oxazino[3,4-h]pteridin-6(5H)-one] is 31.6 nM; for `CNC(=O)c1cccc(-c2ncc3c(n2)N2CCOCC2C(=O)N3Cc2ccc(S(C)(=O)=O)cc2)c1` (stereo not drawn) [Example 122, N-methyl-3-(5-(4-(methylsulfonyl)benzyl)-6-oxo-5,6,6a,7,9,10-hexahydro-[1,4]oxazino[3,4-h]pteridin-2-yl)benzamide] it is 1000 nM; for `CS(=O)(=O)c1ccc(CN2C(=O)C3COCCN3c3nc(-c4cccc5[nH]ccc45)ncc32)cc1` (stereo not drawn) [Example 123, 2-(1H-indol-4-yl)-5-(4-(methylsulfonyl)benzyl)-6a,7,9,10-tetrahydro-[1,4]oxazino[3,4-h]pteridin-6(5H)-one] it is 0.794 nM.
`CS(=O)(=O)c1ccc(CN2C(=O)C3COCCN3c3nc(-c4ccc5cn[nH]c5c4)ncc32)cc1` (stereo not drawn) [Example 124, 2-(1H-indazol-6-yl)-5-(4-(methylsulfonyl)benzyl)-6a,7,9,10-tetrahydro-[1,4]oxazino[3,4-h]pteridin-6(5H)-one]: the IC50 is 3980 nM.
Still for that read-out and setting: the figure for `CS(=O)(=O)c1ccc(CN2C(=O)C3COCCN3c3nc(-c4cnc(N)nc4)ncc32)cc1` (stereo not drawn) [Example 125, 2-(2-aminopyrimidin-5-yl)-5-(4-(methylsulfonyl)benzyl)-6a,7,9,10-tetrahydro-[1,4]oxazino[3,4-h]pteridin-6(5H)-one] is 10 nM; for `CS(=O)(=O)c1ccc(CN2C(=O)C3COCCN3c3nc(-c4ccc5[nH]ccc5c4)ncc32)cc1` (stereo not drawn) [Example 127, 2-(1H-indol-5-yl)-5-(4-(methylsulfonyl)benzyl)-6a,7,9,10-tetrahydro-[1,4]oxazino[3,4-h]pteridin-6(5H)-one] it is 126 nM.
Still for that read-out and setting: the figure for `CS(=O)(=O)c1ccc(CN2C(=O)C3COCCN3c3nc(-c4cccc(-n5cccn5)c4)ncc32)cc1` (stereo not drawn) [Example 128, 2-(3-(1H-pyrazol-1-yl)phenyl)-5-(4-(methylsulfonyl)benzyl)-6a,7,9,10-tetrahydro-[1,4]oxazino[3,4-h]pteridin-6(5H)-one] is 501 nM; for `Cc1n[nH]cc1-c1ncc2c(n1)N1CCOCC1C(=O)N2Cc1ccc(S(C)(=O)=O)cc1` (stereo not drawn) [Example 130] it is 126 nM; for `CS(=O)(=O)c1ccc(CN2C(=O)C3COCCN3c3nc(-c4ccc(N)c(N)c4)ncc32)cc1` (stereo not drawn) [Example 131, 2-(3,4-diaminophenyl)-5-(4-(methylsulfonyl)benzyl)-6a,7,9,10-tetrahydro-[1,4]oxazino[3,4-h]pteridin-6(5H)-one] it is 126 nM.
Same read-out and setting: the same measure for `CS(=O)(=O)c1ccc(CN2C(=O)C3COCCN3c3nc(-c4cccc(N5CCCS5(=O)=O)c4)ncc32)cc1` (stereo not drawn) [Example 132, 2-(3-(1,1-dioxidoisothiazolidin-2-yl)phenyl)-5-(4-(methylsulfonyl)benzyl)-6a,7,9,10-tetrahydro-[1,4]oxazino[3,4-h]pteridin-6(5H)-one]: 6310 nM; for `CS(=O)(=O)c1ccc(CN2C(=O)C3COCCN3c3nc(-c4c[nH]c5c(Cl)cccc45)ncc32)cc1` (stereo not drawn) [Example 134, 2-(7-chloro-1H-indol-3-yl)-5-(4-(methylsulfonyl)benzyl)-6a,7,9,10-tetrahydro-[1,4]oxazino[3,4-h]pteridin-6(5H)-one]: more than 100 nM.
Take `COc1ccc2c(-c3ncc4c(n3)N3CCOCC3C(=O)N4Cc3ccc(S(C)(=O)=O)cc3)c[nH]c2c1` (stereo not drawn) [Example 136, 2-(6-methoxy-1H-indol-3-yl)-5-(4-(methylsulfonyl)benzyl)-6a,7,9,10-tetrahydro-[1,4]oxazino[3,4-h]pteridin-6(5H)-one]: the IC50 was 501 nM.
On the same count and under the same terms, the same measure for `CS(=O)(=O)c1ccc(CN2C(=O)C3COCCN3c3nc(-c4c[nH]c5ncccc45)ncc32)cc1` (stereo not drawn) [Example 137, 5-(4-(methylsulfonyl)benzyl)-2-(1H-pyrrolo[2,3-b]pyridin-3-yl)-6a,7,9,10-tetrahydro-[1,4]oxazino[3,4-h]pteridin-6(5H)-one]: 501 nM.
Regarding `COc1cccc2c(-c3ncc4c(n3)N3CCOCC3C(=O)N4Cc3ccc(S(C)(=O)=O)cc3)c[nH]c12` (stereo not drawn) [Example 138, 2-(7-methoxy-1H-indol-3-yl)-5-(4-(methylsulfonyl)benzyl)-6a,7,9,10-tetrahydro-[1,4]oxazino[3,4-h]pteridin-6(5H)-one], the IC50 was 3160 nM.
On the same count and under the same terms, the same measure for `CS(=O)(=O)c1ccc(CN2C(=O)C3COCCN3c3nc(-c4cccc5[nH]cnc45)ncc32)cc1` (stereo not drawn) [Example 139, 2-(1H-benzo[d]imidazol-4-yl)-5-(4-(methylsulfonyl)benzyl)-6a,7,9,10-tetrahydro-[1,4]oxazino[3,4-h]pteridin-6(5H)-one]: 79.4 nM.
As to `COc1cc(-c2ncc3c(n2)N2CCOCC2C(=O)N3Cc2ccc(S(C)(=O)=O)cc2)ccn1` (stereo not drawn) [Example 140, 2-(2-methoxypyridin-4-yl)-5-(4-(methylsulfonyl)benzyl)-6a,7,9,10-tetrahydro-[1,4]oxazino[3,4-h]pteridin-6(5H)-one], the IC50 was 631 nM.
Same read-out and setting: the figure for `CS(=O)(=O)c1ccc(CN2C(=O)C3COCCN3c3nc(-c4cc(N)ccn4)ncc32)cc1` (stereo not drawn) [Example 141, 2-(4-aminopyridin-2-yl)-5-(4-(methylsulfonyl)benzyl)-6a,7,9,10-tetrahydro-[1,4]oxazino[3,4-h]pteridin-6(5H)-one] is more than 10000 nM; for `CS(=O)(=O)c1ccc(CN2C(=O)C3COCCN3c3nc(-c4ccc(F)c5[nH]ccc45)ncc32)cc1` (stereo not drawn) [Example 142, 2-(7-fluoro-1H-indol-4-yl)-5-(4-(methylsulfonyl)benzyl)-6a,7,9,10-tetrahydro-[1,4]oxazino[3,4-h]pteridin-6(5H)-one] it is 20 nM; for `Cc1c[nH]c2c(F)ccc(-c3ncc4c(n3)N3CCOCC3C(=O)N4Cc3ccc(S(C)(=O)=O)cc3)c12` (stereo not drawn) [Example 143, 2-(7-fluoro-3-methyl-1H-indol-4-yl)-5-(4-(methylsulfonyl)benzyl)-6a,7,9,10-tetrahydro-[1,4]oxazino[3,4-h]pteridin-6(5H)-one] it is 2000 nM.
With `CS(=O)(=O)c1ccc(CN2C(=O)C3COCCN3c3nc(-c4cncc5[nH]ccc45)ncc32)cc1` (stereo not drawn) [Example 144, 5-(4-(methylsulfonyl)benzyl)-2-(1H-pyrrolo[2,3-c]pyridin-4-yl)-6a,7,9,10-tetrahydro-[1,4]oxazino[3,4-h]pteridin-6(5H)-one], the IC50 is 2.51 nM.
In the case of `O=C1C2COCCN2c2nc(-c3cccc4[nH]ccc34)ncc2N1Cc1ccccc1` (stereo not drawn) [Example 145, 5-benzyl-2-(1H-indol-4-yl)-6a,7,9,10-tetrahydro-[1,4]oxazino[3,4-h]pteridin-6(5H)-one], the IC50 was 25.1 nM.
Same read-out and setting: the figure for `O=C1C2COCCN2c2nc(-c3cccc4[nH]ccc34)ncc2N1C1CCc2ccc(Cl)cc21` (stereo not drawn) [Example 146, 5-(6-chloro-2,3-dihydro-1H-inden-1-yl)-2-(1H-indol-4-yl)-6a,7,9,10-tetrahydro-[1,4]oxazino[3,4-h]pteridin-6(5H)-one] is 31.6 nM.
With `CNC(=O)Nc1ccc(-c2ncc3c(n2)N2CCOCC2C(=O)N3C2CCc3ccc(Cl)cc32)cc1` (stereo not drawn) [Example 147, 1-(4-(5-(6-chloro-2,3-dihydro-1H-inden-1-yl)-6-oxo-5,6,6a,7,9,10-hexahydro-[1,4]oxazino[3,4-h]pteridin-2-yl)phenyl)-3-methylurea], the IC50 was 20 nM.
Consider `CNC(=O)Nc1ccc(-c2ncc3c(n2)N2CCOCC2C(=O)N3C2CCc3ccc(OC)cc32)cc1` (stereo not drawn) [Example 148, 1-(4-(5-(6-methoxy-2,3-dihydro-1H-inden-1-yl)-6-oxo-5,6,6a,7,9,10-hexahydro-[1,4]oxazino[3,4-h]pteridin-2-yl)phenyl)-3-methylurea], for which the IC50 was 3.98 nM.
Still for that read-out and setting: the same measure for `O=C1Nc2cnc(-c3cccc4c3OCO4)nc2N2CCOCC12` (stereo not drawn) [Example 151, 2-(benzo[d][1,3]dioxol-4-yl)-6a,7,9,10-tetrahydro-[1,4]oxazino[3,4-h]pteridin-6(5H)-one]: 5010 nM; for `O=C1Nc2cnc(-c3cccc4[nH]cnc34)nc2N2CCOCC12` (stereo not drawn) [Example 152, 2-(1H-benzo[d]imidazol-4-yl)-6a,7,9,10-tetrahydro-[1,4]oxazino[3,4-h]pteridin-6(5H)-one]: 501 nM.

The record behind these values is US8791107B2, “N-substituted oxazinopteridines and oxazinopteridinones” (Takeda Pharmaceutical Company Limited, priority 2011, dated 2014).
